Reference: US20070203225A1, “METHOD OF INCREASING ENDOGENOUS ADIPONECTIN PRODUCTION AND LEPTIN PRODUCTION” (priority 2001, published 2007)
“Also recorded” adds a separate entry of the source.

Columns and labels:
isolated rat adipocytes [1] = test: Glucose utilization (uptake) by isolated cultured rat adipocytes; type: cell-based; details: for Glucose Uptake (μg) over 96 h: isolated rat adipocytes, 96 h culture
Procedure: (§1) Cell isolation/preparation: Adipocytes are prepared from epididymal fat pads from male Sprague-Dawley rats weighing 300-600 g. Epididymal fat depots are resected from halothane anesthetized rats under aseptic conditions and adipocytes are isolated by collagenase digestion by the Rodbell method (Rodbell M. Metabolism of isolated fat cells. I. Effects of hormones on glucose metabolism and lipolysis. J Biol Chem. 1964; 239: 375-380), with minor modifications as previously described (Mueller W M, Gregoire F M, Stanhope K L, Mobbs C V, Mizuno T M, Warden C H, Stem J S, Havel P J. Evidence that glucose metabolism regulates leptin secretion from isolated adipocytes. Endocrinology 139: 551-558, 1998; Mueller W M, Stanhope K L, Gregoire F, Evans J L, Havel P J. Effects of metformin and vanadium on leptin secretion from cultured rat adipocytes. Obesity Res. 8: 530-539, 2000; Medina E A, Stanhope K L, Mizuno T M, Mobbs C V, Gregoire F, Hubbard N E, Erickson K L, Havel P J. Effects of tumor necrosis factor alpha on leptin secretion and gene expression: relationship to changes of glucose metabolism in isolated rat adipocytes. Int J Obes Relat Metab Disord. 23: 896-903, 1999.). The isolated adipocytes are then incubated for 30 minutes at 37 C before being plated and cultured on Matrigel-coated plates.
(§2) Adipocyte Culture: Adipocytes are maintained in culture anchored to a basement membrane matrix (Matrigel, Becton Dickinson, Franklin Lakes, N.J.) or collagen from Cohesion Technologies, (Palo Alto, Calif.). Although all in vitro systems have inherent advantages and disadvantages, advantages of this system compared with cultures containing free-floating adipocytes are that the matrix simulates their normal basement membrane attachment and that the cells are maintained in close proximity to each other, allowing direct cell to cell contact. Together the cell contact and basement membrane attachment help to maintain differentiation, since adipocytes have a strong tendency to dedifferentiate in long-term (>24 h) culture. In addition, the matrix and the small amount of serum in the media both contain growth factors, which are also likely to help in maintaining cell differentiation. Furthermore, the adipocytes in this system are not exposed to toxic levels of oxygen at the interface of the media and the incubator atmosphere, as opposed to free-floating adipocytes which aggregate at the surface of the media. An advantage of the system over those containing minced adipose tissue is that all of the cells in the culture are equally exposed to the nutrients and the oxygen dissolved in the media. Thus, although clearly different from the in vivo situation, this system provides a more physiological environment than most systems for maintaining adipocytes in long-term culture.
(§3) In culturing each suspension, Matrigel is first thawed on ice to a liquid and uniformly applied to the surface of culture dishes (300 μl Matrigel/35 mm well). After the incubation period, 150 μl of the adipocyte suspension (2:1 ratio of packed cells to media) are plated on the Matrigel or collagen matrix. Adipocytes from each suspension are thoroughly mixed with a transfer pipette before plating to insure that a similar number adipocytes with a similar size distribution are added to the control and experimental wells for each suspension. The warmth of the added cells and buffer causes the Matrigel to gel around the adipocytes, or the neutralization of the acidic pH of the collagen solution to 7.0 solidifies the collagen, and both of these techniques effectively anchor the adipocytes to the culture dish. After a 30 minute incubation at 37° C., 2 ml of warm culture medium is added. The cells are maintained in an incubator at 37° C. for 96 hours with 6% CO2. Aliquots of adipocytes from each animal are divided into wells, with the different concentrations of insulin or other agents to be tested. In each plate an appropriate control well contains adipocytes from the same animal. […]

isolated rat adipocytes [2] = test: Lactate production and proportion of glucose anaerobically metabolized to lactate in isolated cultured rat adipocytes; type: cell-based; details: for Glucose to Lactate (%) / Lactate Produced (μg) over 96 h: isolated rat adipocytes, 96 h culture
Procedure: as §1, §2, §3

isolated rat adipocytes [3] = test: Leptin secretion/production by isolated cultured rat adipocytes (RIA); type: cell-based; details: for Leptin (ng) Produced over 96 h / [Leptin] (ng/ml) at 96 h: isolated rat adipocytes, 96 h culture; for increase of leptin production/secretion: PDH kinase inhibitors vs control: DTNB 100 μM, NEM 0.1 μM, DCA 2 mM
Procedure: as §1, §2, §3

isolated rat adipocytes [4] = test: Incorporation of glucose carbon into triglyceride in cultured adipocytes; type: cell-based; details: DTNB 100 μM, NEM 0.1 μM, DCA 2 mM
Procedure: Incorporation of Glucose Carbon into Triglyceride: To measure glucose incorporation into triglyceride, cultures are exposed to media containing 0.01 uCi/ml of ^14C-glucose. After 96 hr, media and extracellular lipid is removed from the well and methanol added. Then scrape the collagen-cell matrix from the well and transfer into a 50 ml glass tube. Rinse the well and scrape again in methanol to assure complete transfer of cells. Total triglycerides will be extracted using the Folch method (Folch, 1957). An aliquot of the lipid extract will be placed into vials containing scintillation fluid then radioactivity will be measured.
The first measurement is used to calculate the amount of glucose incorporated into triglycerides. Another aliquot of the lipid extract is placed into pre-weighed aluminum pans to determine the total amount of triglyceride per well. The remaining lipid is saponified and acidified to separate the glycerol and fatty acids. An aliquot of the lipid extract is placed into vials containing scintillation fluid and counted. This second count represents the ^14C-glucose incorporation into fatty acids. By subtraction, the amount that was incorporated into triglyceride though glycerol is also determined. Glucose incorporation into triglyceride and into the fatty acid portion of the triglyceride are calculated by multiplying disintegration per min by total ug of glucose/well over the total DPM/well.

leptin promoter = test: Leptin promoter luciferase construct transfected into 3T3-L1 cells; type: cell-based
isolated rat adipocytes [5] = details: glycolysis suppressed with sodium fluoride; cited from earlier work
cultured rat adipocytes = test: Adiponectin secretion by isolated cultured rat adipocytes over 96 h; type: cell-based; details: DTNB 100 μM, DCA 2 mM; 96 h culture, n=6
Procedure: Several studies have reported that thiazolidenediones (TZDs), agonists of PPARγ, increase adiponectin expression and circulating levels in animals (Maeda, 2001; Yamauchi, 2001a; Ye, 2003). TZD (10 μM Troglitazone) stimulated of adiponectin secretion from cultured rat adipocytes from 3 different depots (n=6). Mesenteric fat produced the largest amount of adiponectin over 96 hours in culture. (FIG. 5A). Adiponectin secretion from both the control- and TZD-treated adipocytes was well correlated with the glucose utilization (control, r=0.79; p<0.001); (TZD-treated, r=0.84, p=<0.0001, FIG. 5B) showing that, similar to leptin production, glucose metabolism also is involved in the regulation of adiponectin production by adipocytes.
Insulin increased adiponectin production from 3 different fat depots, however as in the experiments with troglitazone, the mesenteric depot produced the most adiponectin (FIG. 6B). Like leptin, both basal and insulin-stimulated adiponectin secretion was highly correlated to glucose utilization (r=0.91, p<0.0001) (FIG. 6C), and inversely related to the proportion of glucose metabolized to lactate (r=−0.81, p<0.0001) (FIG. 6D).
Also paralleling the regulation of leptin, adiponectin secretion by isolated cultured adipocytes was increased during 96 h culture by inhibitors of PDH-K. DTNB (100 μM) increased adiponectin secretion by 40% (p<0.03, n=6, FIG. 7A). DCA (2 mM) increased adiponectin secretion by 23% (p<0.025, n=6, FIG. 7B). The increase in adiponectin induced by DTNB was highly correlated with glucose utilization (r=0.95, p<0.004). Furthermore in adipocytes transfected with antisense directed at PDH-K, adiponectin secretion was stimulated by 24.3±8.4%, p<0.05, n=7, FIG. 7C).
as §1
Adipocyte Culture: Adipocytes are maintained in culture anchored to a basement membrane matrix (Matrigel, Becton Dickinson, Franklin Lakes, N.J.) or collagen from Cohesion Technologies, (Palo Alto, Calif.). […]

[6] = DTNB 100 μM, NEM 0.1 μM, DCA 2 mM
[7] = NEM 0.1 μM + insulin 0.48 nM vs control (insulin only)
[8] = DCA 2.0 mM + insulin 0.48 nM vs control (insulin only)

**Q.** Which results are given for CCN1C(=O)C=CC1=O [NEM, N-ethylmaleimide]?
**A.** effect on total / insulin-mediated glucose utilization (in words) (isolated rat adipocytes [1]; [6]): increased; Change in Parameter: Glucose Uptake (μg) over 96 h (isolated rat adipocytes [1]; [7]): +348 ± 114 μg; Glucose Uptake (μg) over 96 h (isolated rat adipocytes [1]; NEM 0.1 μM + insulin 0.48 nM): 1399 ± 132 µg; effect on glucose not converted to lactate or incorporated into TG (OTHER; glucose flux into oxidation), by subtraction (in words) (isolated rat adipocytes [2]; [6]): increased; effect on proportion of glucose anaerobically metabolized to lactate (in words) (isolated rat adipocytes [2]; [6]): decreased; effect on lactate production (in words) (isolated rat adipocytes [2]; DTNB 100 μM, NEM 0.1 μM, DCA 0.1 to 5.0 mM): without any increase; Change in Parameter: Glucose to Lactate (%) (isolated rat adipocytes [2]; [7]): −6.9 ± 2.3%; Change in Parameter: Lactate Produced (μg) over 96 h (isolated rat adipocytes [2]; [7]): -10 ± 13 µg; Glucose to Lactate (%) (isolated rat adipocytes [2]; NEM 0.1 μM + insulin 0.48 nM): 13.6 ± 1.5%; Lactate Produced (μg) over 96 h (isolated rat adipocytes [2]; NEM 0.1 μM + insulin 0.48 nM): 178 ± 11 µg; % ΔLeptin Produced over 96 h (isolated rat adipocytes [3]; [7]): +26.6 ± 6.2%; % Δ[Leptin] (ng/ml) at 96 h (isolated rat adipocytes [3]; [7]): +25.3 ± 6.3%; Change in Parameter: Leptin (ng) Produced over 96 h (isolated rat adipocytes [3]; [7]): +14.2 ± 4.2 ng; Change in Parameter: [Leptin] (ng/ml) at 96 h (isolated rat adipocytes [3]; [7]): +4.0 ± 1.0 ng/ml; Leptin (ng) Produced over 96 h (isolated rat adipocytes [3]; NEM 0.1 μM + insulin 0.48 nM): 63.4 ± 8.2 ng; [Leptin] (ng/ml) at 96 h (isolated rat adipocytes [3]; NEM 0.1 μM + insulin 0.48 nM): 18.4 ± 2.4 ng/mL; effect on leptin production/secretion (in words) (isolated rat adipocytes [3]; PDH kinase inhibitors DTNB, NEM, DCA, cultured adipocytes): increase; increase of leptin production/secretion (isolated rat adipocytes [3]; cultured adipocytes): 25%; effect on proportion of glucose incorporated into TG (in words) (isolated rat adipocytes [4]): without affecting

**Q.** What does the source list for O=CC[C@@H](O)[C@H](O)[C@H](O)CO [2-DG, 2-deoxy-D-glucose]?
**A.** effect on leptin secretion and ob gene expression (in words) (isolated rat adipocytes [3]; 2-DG treatment): suppressed; effect on activity of control plasmid (in words) (leptin promoter; insulin 10 nM, 2-DG 10 mg/dl): unaffected; effect on leptin promoter activity (in words) (leptin promoter; insulin 0.1 to 10 nM, 2-DG 10 mg/dl on basal and insulin-stimulated (10 nM) activity): markedly inhibited; also recorded: completely blocked

**Q.** Which “effect on leptin expression and secretion (in words)” value (isolated rat adipocytes [5]) does the source give for [F-].[Na+] [sodium fluoride] here?
**A.** reduced

**Q.** Which “Change in Parameter: Glucose Uptake (μg) over 96 h” value (isolated rat adipocytes [1]; [8]) does the source give for O=C(O)C(Cl)Cl [DCA, Dichloroacetate] here?
**A.** -46 ± 57 µg

**Q.** And the “Glucose Uptake (μg) over 96 h” value (isolated rat adipocytes [1]; DCA 2.0 mM + insulin 0.48 nM)?
**A.** 1082 ± 117 µg

**Q.** And the “Change in Parameter: Glucose to Lactate (%)” value (isolated rat adipocytes [2]; [8])?
**A.** −16.1 ± 1.3%

**Q.** And the “Change in Parameter: Lactate Produced (μg) over 96 h” value (isolated rat adipocytes [2]; [8])?
**A.** -181 ± 10 µg

**Q.** And the “Glucose to Lactate (%)” value (isolated rat adipocytes [2]; DCA 2.0 mM + insulin 0.48 nM)?
**A.** 7.9 ± 0.9%

**Q.** And the “Lactate Produced (μg) over 96 h” value (isolated rat adipocytes [2]; DCA 2.0 mM + insulin 0.48 nM)?
**A.** 81 ± 4 µg

**Q.** And the “% ΔLeptin Produced over 96 h” value (isolated rat adipocytes [3]; [8])?
**A.** +17.6 ± 4.7%

**Q.** What about the “% Δ[Leptin] (ng/ml) at 96 h” value (isolated rat adipocytes [3]; [8]) of the same compound?
**A.** +17.9 ± 7.9%

**Q.** And the “Change in Parameter: Leptin (ng) Produced over 96 h” value (isolated rat adipocytes [3]; [8])?
**A.** +12.9 ± 3.6 ng

**Q.** What about the “Change in Parameter: [Leptin] (ng/ml) at 96 h” value (isolated rat adipocytes [3]; [8]) of the same compound?
**A.** +3.6 ± 1.0 ng/ml

**Q.** What about the “Leptin (ng) Produced over 96 h” value (isolated rat adipocytes [3]; DCA 2.0 mM + insulin 0.48 nM) of the same compound?
**A.** 88.3 ± 7.5 ng

**Q.** What about the “[Leptin] (ng/ml) at 96 h” value (isolated rat adipocytes [3]; DCA 2.0 mM + insulin 0.48 nM) of the same compound?
**A.** 27.0 ± 2.6 ng/mL

**Q.** What about the “increase of leptin production/secretion” value (isolated rat adipocytes [3]; cultured adipocytes) of the same compound?
**A.** 20-25%

**Q.** And the “increase of adiponectin secretion” value (cultured rat adipocytes)?
**A.** 23%
